Laboratory results as given in PMC5218480 (PLoS ONE, 2017).

Tested on: MV-4-11 cells
Assay: Gene expression microarray analysis (Affymetrix PrimeView) and GSEA
Type: cell-based, human
Parameters: RFU PODN (11730768_x_at) / Fold change /veh PODN (11730768_x_at) / RFU LINC00158 (11744669_a_at) / Fold change /veh LINC00158 (11744669_a_at) / RFU DUSP10 (11751237_a_at) / Fold change /veh DUSP10 (11751237_a_at) / RFU ID3 (11757404_x_at) / Fold change /veh ID3 (11757404_x_at) / RFU PLEKHG5 (11737974_s_at) / Fold change /veh PLEKHG5 (11737974_s_at) / RFU LRRC4B (11730491_at) / Fold change /veh LRRC4B (11730491_at) / RFU GIMAP4 (11747438_a_at) / Fold change /veh GIMAP4 (11747438_a_at) / RFU KRT8 (11758183_x_at) / Fold change /veh KRT8 (11758183_x_at) / RFU CNN1 (11734310_a_at) / Fold change /veh CNN1 (11734310_a_at) / RFU VPS37D (11726825_at) / Fold change /veh VPS37D (11726825_at) / RFU C10orf10 (11716522_x_at) / Fold change /veh C10orf10 (11716522_x_at) / RFU KIR2DL2 /// KIR2DL4 /// KIR2DL5A /// KIR2DL5B /// KIR2DS1 /// KIR2DS2 /// KIR2DS3 /// KIR2DS4 /// KIR3DL3 /// KIR3DL3 /// KIR3DS1 (11738374_at) / Fold change /veh KIR2DL2 /// KIR2DL4 /// KIR2DL5A /// KIR2DL5B /// KIR2DS1 /// KIR2DS2 /// KIR2DS3 /// KIR2DS4 /// KIR3DL3 /// KIR3DL3 /// KIR3DS1 (11738374_at) / RFU C1QL1 (11718748_at) / Fold change /veh C1QL1 (11718748_at) / RFU TMPRSS4 (11747572_a_at) / Fold change /veh TMPRSS4 (11747572_a_at) / RFU HAMP (11756126_x_at) / Fold change /veh HAMP (11756126_x_at) / RFU RNFT2 (11725882_a_at) / Fold change /veh RNFT2 (11725882_a_at) / RFU NR4A2 (11747474_a_at) / Fold change /veh NR4A2 (11747474_a_at) / RFU ABCC12 (11746883_a_at) / Fold change /veh ABCC12 (11746883_a_at) / RFU TMEM136 (11760407_x_at) / Fold change /veh TMEM136 (11760407_x_at) / RFU CLDN22 /// WWC2 (11732394_at) / Fold change /veh CLDN22 /// WWC2 (11732394_at) / RFU HLA-DPB1 (11760878_x_at) / Fold change /veh HLA-DPB1 (11760878_x_at) / RFU SPINT1 (11716480_a_at) / Fold change /veh SPINT1 (11716480_a_at) / RFU GAP43 (11754022_s_at) / Fold change /veh GAP43 (11754022_s_at) / RFU A4GNT (11735810_at) / Fold change /veh A4GNT (11735810_at) / RFU PRB3 (11715151_x_at) / Fold change /veh PRB3 (11715151_x_at) / RFU TUBB4B (11761932_at) / Fold change /veh TUBB4B (11761932_at) / RFU CAPN14 (11732068_a_at) / Fold change /veh CAPN14 (11732068_a_at) / RFU TMCC2 (11721928_a_at) / Fold change /veh TMCC2 (11721928_a_at) / RFU IRGQ (11745062_a_at) / Fold change /veh IRGQ (11745062_a_at) / RFU FAM174B (11720279_a_at) / Fold change /veh FAM174B (11720279_a_at) / RFU TMPRSS4 (11748680_a_at) / Fold change /veh TMPRSS4 (11748680_a_at) / RFU FAM212B (11763350_a_at) / Fold change /veh FAM212B (11763350_a_at) / RFU PLEKHG5 (11743358_a_at) / Fold change /veh PLEKHG5 (11743358_a_at) / RFU ZSCAN30 (11745921_a_at) / Fold change /veh ZSCAN30 (11745921_a_at) / RFU CMKLR1 (11741424_a_at) / Fold change /veh CMKLR1 (11741424_a_at) / RFU LOC101060620 /// MAPK8IP1 (11723275_at) / Fold change /veh LOC101060620 /// MAPK8IP1 (11723275_at) / RFU SPTSSB (11747773_x_at) / Fold change /veh SPTSSB (11747773_x_at) / RFU PRSS12 (11739890_at) / Fold change /veh PRSS12 (11739890_at) / RFU BIN1 (11741810_x_at) / Fold change /veh BIN1 (11741810_x_at) / RFU WNT11 (11732464_a_at) / Fold change /veh WNT11 (11732464_a_at) / RFU C10orf10 (11716521_a_at) / Fold change /veh C10orf10 (11716521_a_at) / RFU C5orf56 (11738089_at) / Fold change /veh C5orf56 (11738089_at) / RFU CYB561 (11721691_x_at) / Fold change /veh CYB561 (11721691_x_at) / RFU ANKRD19P (11752326_a_at) / Fold change /veh ANKRD19P (11752326_a_at) / RFU OR2T12 /// OR2T33 /// OR2T8 (11738714_s_at) / Fold change /veh OR2T12 /// OR2T33 /// OR2T8 (11738714_s_at) / RFU VCAN (11748164_a_at) / Fold change /veh VCAN (11748164_a_at) / RFU JSRP1 (11732532_at) / Fold change /veh JSRP1 (11732532_at) / RFU KRTAP10-11 (11738290_x_at) / Fold change /veh KRTAP10-11 (11738290_x_at) / RFU MYO3A (11730013_a_at) / Fold change /veh MYO3A (11730013_a_at) / RFU EBF3 (11725865_a_at) / Fold change /veh EBF3 (11725865_a_at) / RFU CAMK2N1 (11719241_x_at) / Fold change /veh CAMK2N1 (11719241_x_at) / RFU C5orf56 (11738088_a_at) / Fold change /veh C5orf56 (11738088_a_at) / RFU OLFML3 (11715873_a_at) / Fold change /veh OLFML3 (11715873_a_at) / RFU LOC100653217 /// NTM (11731650_a_at) / Fold change /veh LOC100653217 /// NTM (11731650_a_at) / RFU MAPK11 (11762145_a_at) / Fold change /veh MAPK11 (11762145_a_at) / RFU FIZ1 (11724087_x_at) / Fold change /veh FIZ1 (11724087_x_at) / RFU OASL (11726364_x_at) / Fold change /veh OASL (11726364_x_at) / RFU SOX15 (11748057_x_at) / Fold change /veh SOX15 (11748057_x_at) / RFU CD79A (11719716_a_at) / Fold change /veh CD79A (11719716_a_at) / RFU HIST1H1D (11736915_at) / Fold change /veh HIST1H1D (11736915_at) / RFU CASKIN2 (11723855_a_at) / Fold change /veh CASKIN2 (11723855_a_at) / RFU LOC730098 (11760151_x_at) / Fold change /veh LOC730098 (11760151_x_at) / RFU OR4N2 (11742367_at) / Fold change /veh OR4N2 (11742367_at) / RFU PRRT2 (11749266_a_at) / Fold change /veh PRRT2 (11749266_a_at) / RFU SNX32 (11753110_a_at) / Fold change /veh SNX32 (11753110_a_at) / RFU CDHR5 (11726645_a_at) / Fold change /veh CDHR5 (11726645_a_at) / RFU RCAN1 (11760418_a_at) / Fold change /veh RCAN1 (11760418_a_at) / RFU FAM167A (11723789_a_at) / Fold change /veh FAM167A (11723789_a_at) / RFU FAM26E (11764081_at) / Fold change /veh FAM26E (11764081_at) / RFU ISYNA1 (11749810_s_at) / Fold change /veh ISYNA1 (11749810_s_at) / RFU ACY1 (11761880_at) / Fold change /veh ACY1 (11761880_at) / RFU 11764098_at / Fold change /veh 11764098_at / RFU SAMD14 (11745864_x_at) / Fold change /veh SAMD14 (11745864_x_at) / RFU NPB (11741838_a_at) / Fold change /veh NPB (11741838_a_at) / RFU TMPRSS6 (11731388_a_at) / Fold change /veh TMPRSS6 (11731388_a_at) / RFU KRTAP10-2 (11738614_at) / Fold change /veh KRTAP10-2 (11738614_at) / RFU ARHGAP8 /// PRR5-ARHGAP8 (11727945_x_at) / Fold change /veh ARHGAP8 /// PRR5-ARHGAP8 (11727945_x_at) / RFU KRTAP5-7 /// NADSYN1 (11734609_at) / Fold change /veh KRTAP5-7 /// NADSYN1 (11734609_at) / RFU RASL12 (11751679_a_at) / Fold change /veh RASL12 (11751679_a_at) / RFU CDKN2B (11736163_a_at) / Fold change /veh CDKN2B (11736163_a_at) / RFU PRF1 (11729649_at) / Fold change /veh PRF1 (11729649_at) / RFU, ZNF638 /// ZNF638-IT1 / Fold change vs veh, ZNF638 /// ZNF638-IT1 / RFU, PANK3 / Fold change vs veh, PANK3 / RFU, SH3YL1 / Fold change vs veh, SH3YL1 / RFU, ZEB2 / Fold change vs veh, ZEB2 / RFU, NRIP1 / Fold change vs veh, NRIP1 / RFU, PTTG1IP / Fold change vs veh, PTTG1IP / RFU, CAPN2 / Fold change vs veh, CAPN2 / RFU, MED14 / Fold change vs veh, MED14 / RFU, SNORA58 / Fold change vs veh, SNORA58 / RFU, C1orf63 / Fold change vs veh, C1orf63 / RFU, LRRFIP1 / Fold change vs veh, LRRFIP1 / RFU, NDUFAF7 / Fold change vs veh, NDUFAF7 / RFU, SLC12A2 / Fold change vs veh, SLC12A2 / RFU, IBTK / Fold change vs veh, IBTK / RFU, ESF1 / Fold change vs veh, ESF1 / Fold change vs veh, TMEM50B / RFU, TAOK1 / Fold change vs veh, TAOK1 / RFU, ACBD3 / Fold change vs veh, ACBD3 / RFU, TMA16 / Fold change vs veh, TMA16 / RFU, RWDD3 / Fold change vs veh, RWDD3 / RFU, BCAT1 / Fold change vs veh, BCAT1 / RFU, EDEM3 / Fold change vs veh, EDEM3 / RFU, TMEM33 / Fold change vs veh, TMEM33 / RFU, WDR75 / Fold change vs veh, WDR75 / RFU, AHCTF1 / Fold change vs veh, AHCTF1 / RFU, TFRC / Fold change vs veh, TFRC / RFU, ZDHHC17 / Fold change vs veh, ZDHHC17 / RFU, NOM1 / Fold change vs veh, NOM1 / RFU, ARL8B / Fold change vs veh, ARL8B / RFU, ZBTB11 / Fold change vs veh, ZBTB11 / RFU, TAMM41 / Fold change vs veh, TAMM41 / RFU, KIAA1704 /// LOC100996395 / Fold change vs veh, KIAA1704 /// LOC100996395 / RFU, ING1 / Fold change vs veh, ING1 / RFU, TRMT61B / Fold change vs veh, TRMT61B / RFU, FUBP3 / Fold change vs veh, FUBP3 / RFU, TP53 / Fold change vs veh, TP53 / RFU, TNKS2 / Fold change vs veh, TNKS2 / RFU, ZFP14 / Fold change vs veh, ZFP14 / RFU, ACTR2 / Fold change vs veh, ACTR2 / RFU, PPP3R1 / Fold change vs veh, PPP3R1 / RFU, PIK3R1 / Fold change vs veh, PIK3R1 / RFU, HNRNPA1 / Fold change vs veh, HNRNPA1 / RFU, RNF170 / Fold change vs veh, RNF170 / RFU, ZNF28 / Fold change vs veh, ZNF28 / RFU, RNGTT / Fold change vs veh, RNGTT / RFU, OGT / Fold change vs veh, OGT / RFU, BRD1 / Fold change vs veh, BRD1 / RFU, MARS / Fold change vs veh, MARS / RFU, ZNF655 / Fold change vs veh, ZNF655 / RFU, FAHD1 / Fold change vs veh, FAHD1 / RFU, BDP1 / Fold change vs veh, BDP1 / RFU, LRRCC1 / Fold change vs veh, LRRCC1 / RFU, ARID1A / Fold change vs veh, ARID1A / RFU, ZNF146 / Fold change vs veh, ZNF146 / RFU, ZNF330 / Fold change vs veh, ZNF330 / RFU, GPN3 / Fold change vs veh, GPN3 / RFU, C9orf123 / Fold change vs veh, C9orf123 / RFU, N4BP2L2 / Fold change vs veh, N4BP2L2 / RFU, ARFIP1 / Fold change vs veh, ARFIP1 / RFU, FAM179B / Fold change vs veh, FAM179B / RFU, BCL10 / Fold change vs veh, BCL10 / RFU, UHRF1BP1L / Fold change vs veh, UHRF1BP1L / RFU, BET1 / Fold change vs veh, BET1 / RFU, CNOT2 / Fold change vs veh, CNOT2 / RFU, ZNF268 / Fold change vs veh, ZNF268 / Fold change vs veh, ZNF507 / RFU, DGCR2 / Fold change vs veh, DGCR2 / RFU, WDSUB1 / Fold change vs veh, WDSUB1 / Fold change vs veh, HSP90B1 /// MIR3652 / RFU, ADSS / Fold change vs veh, ADSS / RFU, GK / Fold change vs veh, GK / RFU, ZNF148 / Fold change vs veh, ZNF148 / RFU, TAF9 / Fold change vs veh, TAF9 / RFU, SLC1A5 / Fold change vs veh, SLC1A5 / RFU, SLMO2 / Fold change vs veh, SLMO2 / RFU, ABCC4 / Fold change vs veh, ABCC4 / RFU, LOC101060439 /// RAP1B / Fold change vs veh, LOC101060439 /// RAP1B / RFU, RFX7 / Fold change vs veh, RFX7 / RFU, GTPBP10 / Fold change vs veh, GTPBP10 / RFU, CNEP1R1 / Fold change vs veh, CNEP1R1 / RFU, BIVM-ERCC5 /// ERCC5 / Fold change vs veh, BIVM-ERCC5 /// ERCC5 / RFU, ILF3 / Fold change vs veh, ILF3 / RFU 11762660_at / Fold change /veh 11762660_at / RFU VCAN (11757783_s_at) / Fold change /veh VCAN (11757783_s_at) / RFU DDX43 (11728927_at) / Fold change /veh DDX43 (11728927_at) / RFU KRT8 (11758188_x_at) / Fold change /veh KRT8 (11758188_x_at) / RFU NKD1 (11759106_at) / Fold change /veh NKD1 (11759106_at) / RFU SRD5A1 (11742802_a_at) / Fold change /veh SRD5A1 (11742802_a_at) / RFU TPSAB1 /// TPSB2 (11721975_s_at) / Fold change /veh TPSAB1 /// TPSB2 (11721975_s_at) / RFU GSTM3 (11746129_a_at) / Fold change /veh GSTM3 (11746129_a_at) / RFU IL23R (11737362_x_at) / Fold change /veh IL23R (11737362_x_at) / RFU TMEM51 (11727254_a_at) / Fold change /veh TMEM51 (11727254_a_at) / RFU PIWIL2 (11732686_x_at) / Fold change /veh PIWIL2 (11732686_x_at) / RFU ORM1 (11744905_x_at) / Fold change /veh ORM1 (11744905_x_at) / RFU CCDC152 (11743942_at) / Fold change /veh CCDC152 (11743942_at) / RFU ECM1 (11717891_a_at) / Fold change /veh ECM1 (11717891_a_at) / RFU IL23R (11748794_a_at) / Fold change /veh IL23R (11748794_a_at) / RFU TNFAIP8L3 (11732012_x_at) / Fold change /veh TNFAIP8L3 (11732012_x_at) / RFU MBOAT4 (11741988_at) / Fold change /veh MBOAT4 (11741988_at) / RFU 11764193_at / Fold change /veh 11764193_at / RFU TMEM53 (11763286_at) / Fold change /veh TMEM53 (11763286_at) / RFU MAGEB2 (11727129_at) / Fold change /veh MAGEB2 (11727129_at) / RFU TMEM200A (11744735_a_at) / Fold change /veh TMEM200A (11744735_a_at) / RFU CCDC152 (11751479_a_at) / Fold change /veh CCDC152 (11751479_a_at) / RFU FAM211A (11726209_a_at) / Fold change /veh FAM211A (11726209_a_at) / RFU RGS16 (11746705_a_at) / Fold change /veh RGS16 (11746705_a_at) / RFU VCAN (11755009_s_at) / Fold change /veh VCAN (11755009_s_at) / RFU RHOB (11743442_s_at) / Fold change /veh RHOB (11743442_s_at) / RFU RGS16 (11720943_a_at) / Fold change /veh RGS16 (11720943_a_at) / RFU RGS16 (11720944_at) / Fold change /veh RGS16 (11720944_at) / RFU, VPS4B / Fold change vs veh, VPS4B / RFU, CREB1 / Fold change vs veh, CREB1 / RFU, DNAJC13 / Fold change vs veh, DNAJC13 / RFU, GNAQ / Fold change vs veh, GNAQ / RFU, CDK5R1 / Fold change vs veh, CDK5R1 / RFU, ZRANB3 / Fold change vs veh, ZRANB3 / RFU, CUL4A / Fold change vs veh, CUL4A / RFU, CCNY / Fold change vs veh, CCNY / RFU, UFL1 / Fold change vs veh, UFL1 / RFU, COG3 / Fold change vs veh, COG3 / RFU, DIAPH2 / Fold change vs veh, DIAPH2 / RFU, SKA2 / Fold change vs veh, SKA2 / RFU, AFF3 / Fold change vs veh, AFF3 / RFU, LMF1 / Fold change vs veh, LMF1 / RFU, IPO11 / Fold change vs veh, IPO11 / RFU, DFFB / Fold change vs veh, DFFB / RFU, FOXP1 / Fold change vs veh, FOXP1 / RFU, CARD8 / Fold change vs veh, CARD8 / RFU, STRN3 / Fold change vs veh, STRN3 / RFU, ADK / Fold change vs veh, ADK / RFU, RASSF2 / Fold change vs veh, RASSF2 / RFU, WIPF1 / Fold change vs veh, WIPF1 / RFU, LARP1B / Fold change vs veh, LARP1B / RFU, RASA1 / Fold change vs veh, RASA1 / RFU, RB1 / Fold change vs veh, RB1 / RFU, PPFIA1 / Fold change vs veh, PPFIA1 / RFU, MAT2A / Fold change vs veh, MAT2A / RFU, CCT5 / Fold change vs veh, CCT5 / RFU, WDR92 / Fold change vs veh, WDR92 / RFU, CUX1 / Fold change vs veh, CUX1 / RFU, TTC7A / Fold change vs veh, TTC7A / RFU, TMEM135 / Fold change vs veh, TMEM135 / RFU, DEPTOR / Fold change vs veh, DEPTOR / RFU, CPM / Fold change vs veh, CPM / RFU, DNAJB6 / Fold change vs veh, DNAJB6 / RFU, CACNA2D3 / Fold change vs veh, CACNA2D3 / RFU, DTX4 / Fold change vs veh, DTX4 / RFU, TFCP2 / Fold change vs veh, TFCP2 / RFU, GMCL1 /// GMCL1P1 / Fold change vs veh, GMCL1 /// GMCL1P1 / RFU, AEBP2 / Fold change vs veh, AEBP2 / RFU, SNHG1 /// SNORD22 /// SNORD25 /// SNORD26 /// SNORD27 /// SNORD28 /// SNORD29 /// SNORD31 / Fold change vs veh, SNHG1 /// SNORD22 /// SNORD25 /// SNORD26 /// SNORD27 /// SNORD28 /// SNORD29 /// SNORD31 / Fold change (Aza/veh), C12orf56 (ProbeSet 11735607_a_at) / Fold change (ACY-1035/veh), C12orf56 (ProbeSet 11735607_a_at) / Fold change (Aza/veh), FGFR1OP (ProbeSet 11751329_s_at) / Fold change (ACY-1035/veh), FGFR1OP (ProbeSet 11751329_s_at) / Fold change (Aza/veh), VPS36 (ProbeSet 11739960_a_at) / Fold change (ACY-1035/veh), VPS36 (ProbeSet 11739960_a_at) / RFU SYPL1 (11715823_x_at) / Fold change /veh SYPL1 (11715823_x_at) / RFU IGFBP7 (11715501_s_at) / Fold change /veh IGFBP7 (11715501_s_at) / RFU REEP3 (11722064_at) / Fold change /veh REEP3 (11722064_at) / RFU IGLL1 (11728026_x_at) / Fold change /veh IGLL1 (11728026_x_at): dose or concentration left out as unconfirmed
Details: MV-4-11 cells, 48 hours

Compound: Nc1ncn([C@@H]2O[C@H](CO)[C@@H](O)[C@H]2O)c(=O)n1 [azacitidine]
- RFU WNT11 (11732464_a_at): 6.46 RFU
